Data reported in patent US4720387A (priority 1983, dated 1988).

Columns and labels:
[1] = in vivo
Excerpt: [referred to Exp. 6-II), Table 12].
The frequency of the adverse reaction was compared between the two groups.

[2] = blood-level and excretion of native pinacidil; assay type: in vivo, inpatients suffering from hypertension
[3] = relationship between antihypertensive effect and blood-level of pinacidil; parameters: species or system inpatients suffering from hypertension; conditions: in vivo
Excerpt: The term ΔMBP means the difference between the values of Mean Blood Pressure before and after the administration, and FIGS. 1 and 2 show the average of blood-levels or ΔMBP on the five inpatients.

[4] = adverse reaction at various dosages in inpatients; assay type: in vivo, inpatients suffering from hypertension; conditions: higher dosage affording sufficient therapeutic time
[5] = in vivo; cited from earlier work

With CC(N/C(=N\C#N)Nc1ccncc1)C(C)(C)C (stereo not drawn) [pinacidil, N"-cyano-N-4-pyridyl-N'-1,2,2-trimethylpropylguanidine] the “blood-level at which side-effects (headache) occasionally occur” value [1] was “over 100 ng/ml”, the “maximum safety level (blood-level)” value [1] was 100 ng/mL and the “time the effective blood-level is kept” value ([2]; highest dosage of unprepared pinacidil to avoid the adverse reaction) was “about 6 hours”. The half-life ([2]; human, blood, administered after a meal, read-out: biological half-life period) was 1 to 2 h, the Tmax ([2]; human, blood, administered after a meal, read-out: time to maximum concentration) was 1 to 3 h and the “blood-level at which the antihypertensive effect was minimum (minimum effective blood-level)” value [3] was “around 20 ng/ml”. For the same molecule, the “blood-level at which the antihypertensive effect was satisfactory” value [3] was “over 30 ng/ml”, the “adverse reaction at higher dosage” value [4] was “usually induced the adverse reaction (i.e. headache)” and the “dose proportionality of blood-level” value [5] was “increases in proportion to its dose level”.
